For assay [1], the system named is Human placental-derived vascular endothelial cells. In words: Binding and internalization in angiogenic vascular endothelial cells. The conditions noted are these: acid wash. An excerpt:
Human placental-derived vascular endothelial cells were used to assay for cell binding of the somatostatin analog, ^125I-JIC-2D. The radioligand, a somatostatin analog, ^125I-JIC-2D, was made by solid phase peptide synthesis as described in U.S. Patent No. 5,597,894. This peptide has an amino acid sequence of the following: D-Lys-D-Tyr-D-Lys-D-Tyr-D-Lys-c[Cys-Phe-D-Trp-Lys-Thr-Cys]-Thr-NH2. The cells were obtained by growing discs of human placental veins in fibrinclots for 14 days. […] These discs and their angiogenic sprouts are harvested mechanically and dissociated by vortexing. The vein discs are then discarded and the endothelial cells pooled. Cells were harvested, counted with a hemocytometer, and resuspended in binding buffer (Minimum Essential Medium (MEM), 10 mM Hepes, 0.01 % BSA). A standard assay used 500,000 cells in 1 ml of binding buffer. […] At the termination of the experiment, the incubation medium was removed, the cells were rinsed twice with Hanks balanced salt solution (HBSS), and the radioactivity in the cells determined using a gamma counter. This level of radioactivity represents total binding, which includes both membrane-bound and internalized fractions. Specific binding was determined by calculating the difference in the levels of measured radioactivity without the unlabeled competitor minus the radioactivity with the unlabeled competitor. […]

The subject of assay [2] is IMR-32 cells. As to the kind of experiment: Nuclear translocation (Percoll density gradient fractionation). Format: cell-based, human. How it is done:
The cells were washed twice in media at 4°C and resuspended in cold isotonic sucrose. The labeled cells were passed through a ball-bearing homogenizer three times to disrupt cell membranes while leaving approximately 95% of the cell nuclei intact, according to the method of Balch et al., Arch. Biochem. Biophys., vol. 240, p. […] The cell homogenate was mixed with Percoll to give a final concentration of […] Percoll and spun at 20,400 rpm in a Beckman 40.2 rotor for 45 min to generate a density gradient. Density marker beads (Pharmacia) were used to indicate density levels in the tube. The contents of the tube were fractionated in an ISCO Density Gradient Fractionator. The resulting tubes were assayed for content of radiolabeled somatostatin or analogs, DNA to indicate nuclei, protein, the plasma membrane marker 5'-nucleotidase, and the lysosome marker N-acetylglucosaminidase. The usual assumption was made that the radioactivity measured in fractions rich in a certain cell component was in fact associated with that component; e.g., the radioactivity measured in a fraction rich in plasma membrane was due to association of the radiolabeled compound with the plasma membrane.
The density distribution is represented by the triangles in the figures. Nuclear fractions were found in the density gradient represented by Tubes 12-15, and membrane fractions by Tubes 0-6. […] Radiodecaying nuclei will then ionize DNA, resulting in cellular damage.

Bridges are numbered along the chain shown (N, C = ends). Where no end group is shown, it is not given here. [ ]: non-standard residue; d: D form.

Consider “[dK][dY][dK][dY][dK]CF[dW]KTCT-NH2 (disulfide 6-11) [^125I-JIC-2D]”, for which the binding and internalization result in assay [1] is listed as “the vast majority of the radioligand was internalized into the cell”.

“^125I-somatostatin: radiolabeled native somatostatin (AGCKNFFWKTFTSC; disulfide 3-14 (inferred); ends not checked; also: 125I label, position not given here; UniProt P61278 103-116, looked up)”: the “cellular distribution (membrane vs nuclear fractions)” value is “both membrane binding and small amounts of nuclear binding” in assay [2] (1 hr); “the plasma membrane binding appeared to have peaked and the nuclear fraction was dissipating” in assay [2] (4 hr); “essentially no plasma membrane or nuclear binding was seen” in assay [2] (24 hr).

Source of the values: EP0961591B1, “METHOD TO ENHANCE TISSUE AC[…] RADIOLABELED COMPOUNDS” (BOARD OF SUPERVISORS OF LOUISIANA STATE UNIVERSITY AND …, priority 1997, dated 1999).
